Results as given in publication PMC8218751, “Visualizing Borrelia burgdorferi Infection Using a Small-Molecule Imaging Probe” (Journal of Clinical Microbiology, 2021).
Entries after “also recorded” stand apart in the source; their conditions may differ.

Target: T. denticola HtpG (Treponema denticola, UniProt P61188)
Assay: FLECS assay, elution of GFP-HtpG from ATP Sepharose
Type: binding
Conditions: in words
Description: Escherichia coli (strain BL21/DE3) genomic DNA was isolated from a lab culture generated from the cloning/expression bacterium (ThermoFisher catalog no. EC0114) by overnight proteinase K digestion at 56°C, high-salt clarification, and ethanol precipitation. B. burgdorferi (strain B31) and Treponema denticola genomic DNAs were obtained from the American Type Culture Collection (Manassas, VA; ATCC 35210 and 35405, respectively). Human Hsp90-alpha sequences were derived from cDNA generated from total mRNA of the human breast epithelial line, MCF10A. HtpG DNA sequences were PCR cloned from these DNAs using primers designed to allow in-frame cloning with GFP in the isopropyl-β-D-thiogalactopyranoside (IPTG)-inducible bacterial expression vector. 1GFP (pET His6 GFP TEV [tobacco etch virus] LIC [ligation-independent cloning] vector) was a gift from Scott Gradia (Addgene plasmid #29663; http://n2t.net/addgene:29663; RRID:Addgene_29663). Fusion protein cloning was done using the ligation-independent cloning procedure via single-nucleotide T4 DNA polymerase treatment of vector and purified PCR products followed by annealing of complementary single-strand ends before transformation into DH5 E. coli. Proper fusion junctions and fidelity of cloned inserts were confirmed by sequencing, and then the plasmid was transformed into E. coli BL21(DE3) for protein expression. Fusion protein synthesis was induced by incubation with 1 mM IPTG or autoinduction ([17]). Production of GFP-HtpG/Hsp90 was confirmed by identification of GFP and HtpG peptides with matrix-assisted laser desorption ionization (MALDI) using an AB Sciex 5800 time of flight (TOF)/TOF mass spectrometer in the induced band identified on an SDS-PAGE gel. To complete binding curves, several liters of induced cultures was generated, pelleted with centrifugation of 3,150 × g for 15 min, flash frozen in liquid nitrogen, and then stored at −80°C until subsequent fluorescent-linked enzyme chemoproteomic strategy (FLECS) analysis.
γ-linked ATP Sepharose matrix was generated as described previously by the Haystead lab ([18]). BL21 bacterial pellets expressing GFP-fusion proteins of E. coli, B. burgdorferi, and T. denticola HtpGs and human Hsp90 were lysed with B-PER complete bacterial protein extraction reagent (Thermo Scientific catalog number 89821) and centrifuged at 96,000 relative centrifugal force (RCF) (Beckman Coulter type 45 Ti fixed-angle rotor) to pellet insoluble BL21 material. The clarified lysate was added to a column containing ATP-bound Sepharose. The column was washed with low-salt buffer (150 mM NaCl, 25 mM HEPES, pH 7.4, 1 mM dithiothreitol [DTT], and 60 mM MgCl2), followed by high-salt buffer (1 M NaCl, 25 mM HEPES, pH 7.4, 1 mM DTT, 0.1% IGEPAL, and 60 mM MgCl2) and once again low-salt buffer to remove unbound protein. Next, the resin with bound proteins (50 μl) was transferred to a 0.2-μm polyvinylidene fluoride filter 96-well plate (Corning) sitting on top of a black flat-bottomed 96-well catch plate (Corning). Small molecules or ATP was added to each well (50 μl), and the plates were centrifuged using an Eppendorf 5810 centrifuge at 1,100 rpm (220 RCF) for 1 min. The eluted proteins were measured in a fluorescent plate reader to detect the GFP. Some compounds are autofluorescent, and so to confirm fusion protein elution, samples were analyzed by classic SDS-PAGE methods followed by silver staining and MALDI mass spectrometry using a AB Sciex 5800 TOF/TOF mass spectrometer.
Subtle single amino acid differences are present within the catalytic clefts of these proteins, especially between residues that contact the nucleotide. […] We therefore reasoned that these differences may be sufficient to design small molecules that can similarly discriminate HtpG of stealth organisms. To test this hypothesis, we utilized a fluorescent-linked enzyme chemoproteomic strategy (FLECS) assay to test known Hsp90 inhibitors ([18]) for binding to various HtpG constructs. […]

T. denticola HtpG, sequence (P61188 whole entry): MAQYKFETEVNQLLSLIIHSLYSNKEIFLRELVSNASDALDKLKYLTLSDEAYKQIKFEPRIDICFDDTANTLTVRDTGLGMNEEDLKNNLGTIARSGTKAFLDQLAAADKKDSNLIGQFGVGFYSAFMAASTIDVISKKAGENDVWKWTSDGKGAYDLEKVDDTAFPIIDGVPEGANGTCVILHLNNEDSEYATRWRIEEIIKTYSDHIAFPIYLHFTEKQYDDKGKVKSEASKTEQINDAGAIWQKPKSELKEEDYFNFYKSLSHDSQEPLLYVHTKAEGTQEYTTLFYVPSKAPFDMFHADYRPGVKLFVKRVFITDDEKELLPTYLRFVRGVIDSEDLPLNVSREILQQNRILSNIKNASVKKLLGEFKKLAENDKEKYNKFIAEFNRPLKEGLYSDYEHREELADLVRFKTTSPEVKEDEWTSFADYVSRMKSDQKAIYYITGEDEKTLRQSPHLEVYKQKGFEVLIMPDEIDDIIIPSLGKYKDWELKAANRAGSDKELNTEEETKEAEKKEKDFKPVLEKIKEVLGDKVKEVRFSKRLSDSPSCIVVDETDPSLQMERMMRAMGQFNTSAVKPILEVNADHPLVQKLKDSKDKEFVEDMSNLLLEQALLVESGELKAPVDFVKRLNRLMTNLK

Cc1nn(-c2ccc(C(=O)N(C)C)c(NCCCOCCOCCOCCOCCOCCCNCc3ccc(C(=C\C=C4/N(CCCCS(=O)(=O)O)c5ccccc5C4(C)C)/C=C/C4=[N+](CCCCS(=O)(=O)[O-])c5ccccc5C4(C)C)cc3)c2)c2c1C(=O)CC(C)(C)C2 [HS-198]
Release of T. denticola HtpG from immobilized ATP resin: unable to release; also recorded: inactive
